Data reported in paper PMC5962708, “Structure-Based Design, Synthesis, Biological Evaluation, and Molecular Docking of Novel PDE10 Inhibitors With Antioxidant Activities” (Frontiers in Chemistry, 2018).
Where “and” joins values, the source holds several entries; their conditions need not be identical. Equal values may be shown once.

System: PDE10A
Experiment: not given
Parameters: method as in Siuciak et al., 2006a
Conditions: ref Siuciak et al., 2006a; read-out: IC50 toward PDE10A; cited from earlier work

| Structure (SMILES) | IC50 [nM] |
| --- | --- |
| COc1ccc(Cc2nccc3cc(OC)c(OC)cc23)cc1OC [Papaverine] | 10 to 300 |

System: not listed separately
Experiment: Antioxidant assay: oxygen radical absorbance capacity fluorescein (ORAC-FL) method
Conditions: AAPH 12 mM, fluorescein 150 nM, pH 7.4, 37°C, samples 1–10 μM
Method: The modified oxygen radical absorbance capacity fluorescein (ORAC-FL) method was performed to determine the antioxidant activity (Ou et al., [2001]; Dávalos et al., [2004]). The reaction was diluted with 75 mM phosphate buffer (pH = 7.4), and the volume of the final reaction mixture was 200 μL in well. Test compound (20 μL) and fluorescein (120 μL, 150 nM final concentration) were placed in the well of a black 96 well optical bottom plates. After the mixture was incubated at 37°C for 15 min, AAPH solution (60 μL, 12 mM final concentration) was added rapidly. The plate was placed in a Spectrafluor Plus plate reader (Tecan, Crailsheim, Germany) and the fluorescence was recorded every minute for 4 h with an excitation wavelength at 485 nm and emission wavelength at 535 nm. Trolox was used as standard (1–8 μM, final concentration). A blank (fluorescein + AAPH) with phosphate buffer instead of test compounds and trolox calibration were performed for the assays of antioxidants. The samples were measured at different concentration (1–10 μM). All the reaction mixtures were prepared fourfold, and at least three independent assays were performed for each sample. Fluorescence in time course was normalized on basis of the blank (without antioxidants). The ORAC-FL values were calculated as the reported method. Final ORAC-FL values were expressed in μM of trolox equivalents. Ferulic acid was used as the positive reference compound, showing an ORAC-FL value of 1.6 trolox equivalents.

| Structure (SMILES) | ORAC (oxygen radical absorbance capacity) |
| --- | --- |
| COc1cc2ncnc(N3CCOCC3)c2cc1OCCc1c[nH]c2ccccc12 [Compound 8a, 4-(6-(2-(1H-indol-3-yl)ethoxy)-7-methoxyquinazolin-4-yl) morpholine] | 1.0 trolox equivalents and 1.0 ± 0.1 trolox equivalents |
| COc1cc2ncnc(N3CCOCC3)c2cc1OC(=O)C=Cc1ccc(O)cc1 [Compound 8b, 7-methoxy-4-morpholinoquinazolin-6-yl 3-(4-hydroxyphenyl)acrylate] | 3.3 trolox equivalents and 3.3 ± 0.1 trolox equivalents |
| COc1cc2ncnc(N3CCOCC3)c2cc1OC(=O)CCCCC1CCSS1 (stereo not drawn) [Compound 8c, 7-methoxy-4-morpholinoquinazolin-6-yl 5-(1,2-dithiolan-3-yl)pentanoate] | 0.3 ± 0.01 trolox equivalents |
| COc1cc2ncnc(NCCc3c[nH]c4ccccc34)c2cc1OC [Compound 11a, N-(2-(1H-indol-3-yl)ethyl)-6,7-dimethoxyquinazolin-4-amine] | 1.3 ± 0.1 trolox equivalents |
| COc1cc2ncnc(NC(C)Cc3c[nH]c4ccccc34)c2cc1OC (stereo not drawn) [Compound 11b, N-(1-(1H-indol-3-yl)propan-2-yl)-6,7-dimethoxyquinazolin-4-amine] | 1.5 ± 0.1 trolox equivalents |
| COc1ccc2[nH]cc(CCNc3ncnc4cc(OC)c(OC)cc34)c2c1 [Compound 11c, 6,7-dimethoxy-N-(2-(5-methoxy-1H-indol-3-yl)ethyl)quinazolin-4-amine] | 2.2 trolox equivalents and 2.2 ± 0.03 trolox equivalents |
| COc1ccc2[nH]cc(CC(C)Nc3ncnc4cc(OC)c(OC)cc34)c2c1 (stereo not drawn) [Compound 11d, 6,7-dimethoxy-N-(1-(5-methoxy-1H-indol-3-yl)propan-2-yl)quinazolin-4-amine] | 1.3 trolox equivalents and 1.3 ± 0.1 trolox equivalents |
| COc1cc2ncnc(NCCc3c[nH]c4ccc(O)cc34)c2cc1OC [Compound 11e, 3-(2-((6,7-dimethoxyquinazolin-4-yl)amino)ethyl)-1H-indol-5-ol] | 2.3 trolox equivalents and 2.3 ± 0.2 trolox equivalents |
| COc1cc2ncnc(NCCc3c[nH]c4cc(F)ccc34)c2cc1OC [Compound 11f, N-(2-(6-fluoro-1H-indol-3-yl)ethyl)-6,7-dimethoxyquinazolin-4-amine] | 1.0 trolox equivalents and 1.0 ± 0.1 trolox equivalents |
| COc1cc2ncnc(NCCc3c[nH]c4ccc(C)cc34)c2cc1OC [Compound 11g, 6,7-dimethoxy-N-(2-(5-methyl-1H-indol-3-Yl)ethyl)quinazolin-4-amine] | 1.0 ± 0.2 trolox equivalents |
| COc1cc2ncnc(NCCc3c[nH]c4ccc(Br)cc34)c2cc1OC [Compound 11h, N-(2-(5-bromo-1H-indol-3-yl)ethyl)-6,7-dimethoxyquinazolin-4-amine] | 1.9 ± 0.1 trolox equivalents |
| COc1cc2ncnc(NC(C)CCc3c[nH]c4ccccc34)c2cc1OC (stereo not drawn) [Compound 12] | 1.3 trolox equivalents and 1.3 ± 0.2 trolox equivalents |
| COc1cc2ncnc(NCCc3nc4ccccc4[nH]3)c2cc1OC [Compound 13, N-(2-(1H-benzo[d]imidazol-2-yl)ethyl)-6,7-dimethoxyquinazolin-4-amine] | 0.15 ± 0.02 trolox equivalents |
| COc1cc(/C=C/C(=O)O)ccc1O [Ferulic acid, reference compound] | 1.6 trolox equivalents and 1.6 ± 0.1 trolox equivalents |

Biological target: T1, PDE10A catalytic domain (residues 446-789) (Homo sapiens, UniProt Q9Y233)
T1 construct: coding the catalytic domain (residues 446-789); inferred from the pET15b vector and the Ni-NTA purification) (N); made in house; host or cells: E. coli BL21 (Codonplus, Stratagene)
Experiment: PDE10A enzymatic assay (3H-cGMP hydrolysis, scintillation counting)
Type: biochemical
Conditions: compound concentration 1 μM; read-out: PDE10 inhibitory assay Inhibition ratio (1 μM) (%)
Method: The recombinant pET15b-PDE10A plasmid coding the catalytic domain (residues 446-789) was subcloned and purified according to the following protocols previously reported (Li et al., [2015]). Then it was transferred into E. coli strain BL21 (Codonplus, Stratagene). The E. coli cells carrying the recombinant plasmid were cultured in an 2XYT medium (containing 100 μg/mL ampicillin and 30 μg/mL chloramphenicol) at 37°C until OD600 = 0.6-0.8. And then, 1 mM isopropyl-β-D-thiogalactopyranoside was added in to induce the PDE10A protein expression at 20°C for 24 h. The nickel nitriloacetic acid (Ni-NTA) column (Qiagen) was used for purifying PDE10A proteins. The concentration of the PDE10 fractions was estimated based on the absorbance at 280 nm (calculated by the ProtParam software).
The enzymatic activities of the catalytic domains of PDE10A were performed using ^3H-cGMP solution in the assay buffer of 50 mM Tris pH = 7.5, 4 mM MgCl2, 1 mM DTT, and ^3H-cGMP giving 20,000–30,000 cpm after the reaction terminated per assay. To a solution (DMSO) of test compounds in different concentration, the PDE10A enzyme in the assay buffer was added to perform the enzymatic reaction and then incubated at room temperature for 15 min. The assay was then terminated by addition of 0.2 M ZnSO4, Subsequently, 0.2 N Ba(OH)2 was added to precipitate the reaction product ^3H-GMP, whereas unreacted ^3H-cGMP remained in the supernatant. The radioactivity in the supernatant was measured in 2.5 mL Ultima Gold liquid scintillation cocktails (PerkinElmer) by a liquid scintillation counter (PerkinElmer 2910). The IC50 values of test compounds at PDE10A enzymes were measured by repeating of three independent experiments using the nonlinear regression method.

T1 sequence (Q9Y233 712-1055): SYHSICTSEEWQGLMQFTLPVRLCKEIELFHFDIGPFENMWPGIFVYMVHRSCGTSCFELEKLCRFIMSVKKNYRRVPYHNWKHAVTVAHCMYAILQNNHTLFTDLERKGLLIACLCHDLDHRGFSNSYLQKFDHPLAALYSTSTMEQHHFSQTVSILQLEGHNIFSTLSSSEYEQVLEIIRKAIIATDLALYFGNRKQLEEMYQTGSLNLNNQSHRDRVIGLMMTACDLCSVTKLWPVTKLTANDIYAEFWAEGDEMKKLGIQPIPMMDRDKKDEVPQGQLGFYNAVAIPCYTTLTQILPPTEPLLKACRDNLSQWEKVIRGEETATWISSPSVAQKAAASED

| inhibition at 1 µM [%] | Structure (SMILES) |
| --- | --- |
| 57 | COc1cc2ncnc(N3CCOCC3)c2cc1OCCc1c[nH]c2ccccc12 [Compound 8a, 4-(6-(2-(1H-indol-3-yl)ethoxy)-7-methoxyquinazolin-4-yl) morpholine] |
| 26 | COc1cc2ncnc(N3CCOCC3)c2cc1OC(=O)C=Cc1ccc(O)cc1 [Compound 8b, 7-methoxy-4-morpholinoquinazolin-6-yl 3-(4-hydroxyphenyl)acrylate] |
| 24 | COc1cc2ncnc(N3CCOCC3)c2cc1OC(=O)CCCCC1CCSS1 (stereo not drawn) [Compound 8c, 7-methoxy-4-morpholinoquinazolin-6-yl 5-(1,2-dithiolan-3-yl)pentanoate] |
| 72 | COc1cc2ncnc(NCCc3c[nH]c4ccccc34)c2cc1OC [Compound 11a, N-(2-(1H-indol-3-yl)ethyl)-6,7-dimethoxyquinazolin-4-amine] |
| 66 | COc1cc2ncnc(NC(C)Cc3c[nH]c4ccccc34)c2cc1OC (stereo not drawn) [Compound 11b, N-(1-(1H-indol-3-yl)propan-2-yl)-6,7-dimethoxyquinazolin-4-amine] |
| 49 | COc1ccc2[nH]cc(CCNc3ncnc4cc(OC)c(OC)cc34)c2c1 [Compound 11c, 6,7-dimethoxy-N-(2-(5-methoxy-1H-indol-3-yl)ethyl)quinazolin-4-amine] |
| 56 | COc1ccc2[nH]cc(CC(C)Nc3ncnc4cc(OC)c(OC)cc34)c2c1 (stereo not drawn) [Compound 11d, 6,7-dimethoxy-N-(1-(5-methoxy-1H-indol-3-yl)propan-2-yl)quinazolin-4-amine] |
| 76 | COc1cc2ncnc(NCCc3c[nH]c4ccc(O)cc34)c2cc1OC [Compound 11e, 3-(2-((6,7-dimethoxyquinazolin-4-yl)amino)ethyl)-1H-indol-5-ol] |
| 78 | COc1cc2ncnc(NCCc3c[nH]c4cc(F)ccc34)c2cc1OC [Compound 11f, N-(2-(6-fluoro-1H-indol-3-yl)ethyl)-6,7-dimethoxyquinazolin-4-amine] |
| 64 | COc1cc2ncnc(NCCc3c[nH]c4ccc(C)cc34)c2cc1OC [Compound 11g, 6,7-dimethoxy-N-(2-(5-methyl-1H-indol-3-Yl)ethyl)quinazolin-4-amine] |
| 66 | COc1cc2ncnc(NCCc3c[nH]c4ccc(Br)cc34)c2cc1OC [Compound 11h, N-(2-(5-bromo-1H-indol-3-yl)ethyl)-6,7-dimethoxyquinazolin-4-amine] |
| 84 | COc1cc2ncnc(NC(C)CCc3c[nH]c4ccccc34)c2cc1OC (stereo not drawn) [Compound 12] |
| 80 | COc1cc2ncnc(NCCc3nc4ccccc4[nH]3)c2cc1OC [Compound 13, N-(2-(1H-benzo[d]imidazol-2-yl)ethyl)-6,7-dimethoxyquinazolin-4-amine] |

Same assay, conditions: mean of three independent determinations; 3H-cGMP substrate; read-out: PDE10 inhibitory assay IC50

| IC50 | Structure (SMILES) |
| --- | --- |
| < 1000 nM and 760 nM | COc1cc2ncnc(NCCc3c[nH]c4ccccc34)c2cc1OC [Compound 11a, N-(2-(1H-indol-3-yl)ethyl)-6,7-dimethoxyquinazolin-4-amine] |
| < 1000 nM and 640 nM | COc1cc2ncnc(NCCc3c[nH]c4ccc(O)cc34)c2cc1OC [Compound 11e, 3-(2-((6,7-dimethoxyquinazolin-4-yl)amino)ethyl)-1H-indol-5-ol] |
| < 1000 nM and 330 nM | COc1cc2ncnc(NCCc3c[nH]c4cc(F)ccc34)c2cc1OC [Compound 11f, N-(2-(6-fluoro-1H-indol-3-yl)ethyl)-6,7-dimethoxyquinazolin-4-amine] |
| < 1000 nM and 240 nM | COc1cc2ncnc(NC(C)CCc3c[nH]c4ccccc34)c2cc1OC (stereo not drawn) [Compound 12] |
| < 1000 nM and 680 nM | COc1cc2ncnc(NCCc3nc4ccccc4[nH]3)c2cc1OC [Compound 13, N-(2-(1H-benzo[d]imidazol-2-yl)ethyl)-6,7-dimethoxyquinazolin-4-amine] |
